pIC50: −log10 of the molar value.
Columns and labels:
[1] = Selectivity index, ratio of CC75 for cytotoxicity against human MT4 cells to IC50 for antiviral activity against HIV-1 NL4-3 infected in human MT4 cells; assay type: toxicity, cell-based; details: read-out: Selectivity Index
[2] = system: MDA-MB-231; assay: Antiproliferative activity against human MDA-MB-231 cells assessed as reduction in cell viability measured after 72 hrs by SRB assay; assay type: functional, cell-based; details: MDA-MB-231, 72 h
[3] = system: KB; assay: Antiproliferative activity against human KB cells assessed as reduction in cell viability measured after 72 hrs by SRB assay; assay type: functional, cell-based
[4] = system: Human immunodeficiency virus 1; assay: Antiviral activity against HIV-1 NL4-3 infected in human MT4 cells assessed as reduction in p24 production treated at 48 hrs post-infection and measured on day 4 post-viral infection by ELISA; assay type: functional, organism-based; details: Human immunodeficiency virus 1, NL4-3, MT4
[5] = system: MCF7; assay: Antiproliferative activity against human MCF7 cells assessed as reduction in cell viability measured after 72 hrs by SRB assay; assay type: functional, cell-based; details: MCF7, 72 h
[6] = Antiproliferative activity against human KB-VIN cells assessed as reduction in cell viability after 72 hrs by SRB assay; assay type: functional, cell-based; details: KBVIN
[7] = system: A549; assay: Antiproliferative activity against human A549 cells assessed as reduction in cell viability measured after 72 hrs by SRB assay; details: A549, 72 h
[8] = system: MT4; assay: Cytotoxicity against human MT4 cells assessed as reduction in cell viability by CellTiter-Glo luminescence assay; assay type: cell-based
[9] = system: MRC5; assay: Cytotoxicity against human MRC5 cells assessed as inhibition of cell viability; assay type: cell-based

Structure (SMILES)	selectivity ratio [1]	pIC50 [2]	pIC50 [3]	pIC50 [4]	pIC50 [5]	pIC50 [6]	pIC50 [7]	CC75 [8] [µM]	pIC50 [9]
CC1=C[C@H]2[C@@]3(O)[C@H](C)[C@@H](OC(=O)CCc4ccccc4)[C@]4(OC(=O)CCc5ccccc5)[C@H]([C@@H]3C=C(CO)C[C@]2(O)C1=O)C4(C)C	> 10000	< 5.00	5.08	9.31	4.98	< 5.00	< 5.00	> 5	4.94
CC/C=C/C/C=C/C/C=C/C/C=C/C/C=C/CCCC(=O)O[C@@H]1[C@@H](C)[C@@]2(O)[C@@H](C=C(CO)C[C@]3(O)C(=O)C(C)=C[C@@H]23)[C@@H]2C(C)(C)[C@]12OC(C)=O	> 10000	< 5.00	< 5.00	9.34	< 5.00	< 5.00	< 5.00	> 5	
CC1=C[C@H]2[C@@]3(O)[C@H](C)[C@@H](OC(=O)/C=C/c4ccccc4)[C@]4(OC(=O)/C=C/c5ccccc5)[C@H]([C@@H]3C=C(CO)C[C@]2(O)C1=O)C4(C)C	> 500	5.08	5.19	8.04	5.16	5.17	5.33	> 5	4.44
CC/C=C/C/C=C/C/C=C/C/C=C/C/C=C/CCCC(=O)O[C@@H]1[C@@H](C)[C@@]2(O)[C@@H](C=C(CO)C[C@]3(O)C(=O)C(C)=C[C@@H]23)[C@@H]2C(C)(C)[C@]12OC(=O)CCC	> 1500	< 5.00	< 5.00	8.64	< 5.00	< 5.00	< 5.00	> 5	
CC(=O)O[C@@]12[C@H](OC(=O)/C=C/c3ccccc3)[C@@H](C)[C@@]3(O)[C@@H](C=C(CO)C[C@]4(O)C(=O)C(C)=C[C@@H]34)[C@@H]1C2(C)C	> 1500	< 5.00	< 5.00	8.51	< 5.00	< 5.00	< 5.00	> 5	
CC(=O)O[C@@]12[C@H](OC(=O)/C=C/c3ccc(Cl)cc3)[C@@H](C)[C@@]3(O)[C@@H](C=C(CO)C[C@]4(O)C(=O)C(C)=C[C@@H]34)[C@@H]1C2(C)C	> 5000	< 5.00	< 5.00	9.12	< 5.00	< 5.00	< 5.00	> 5	5.15
CC/C=C/C/C=C/C/C=C/C/C=C/C/C=C/CCCC(=O)O[C@]12C([C@@H]3C=C(CO)C[C@]4(O)C(=O)C(C)=C[C@H]4[C@@]3(O)[C@H](C)[C@H]1O)C2(C)C (single isomer, unassigned)	> 50	5.70	< 5.00	7.21	< 5.00	< 5.00	7.05	> 5	
CCCC(=O)OCC1=C[C@H]2C3C(C)(C)[C@]3(OC(=O)CCC)[C@H](OC(=O)/C=C/c3ccccc3)[C@@H](C)[C@]2(O)[C@@H]2C=C(C)C(=O)[C@@]2(O)C1 (single isomer, unassigned)		5.20	< 5.00	7.13	< 5.00	< 5.00	5.49	> 5	
CCCCCCCCCCCCCCCCCCCC(=O)O[C@]12C([C@@H]3C=C(CO)C[C@]4(O)C(=O)C(C)=C[C@H]4[C@@]3(O)[C@H](C)[C@H]1O)C2(C)C (single isomer, unassigned)	> 350	6.68	< 4.40	7.87	< 5.00	< 4.40	7.10	> 5	
CCCC(=O)O[C@]12C([C@@H]3C=C(CO)C[C@]4(O)C(=O)C(C)=C[C@H]4[C@@]3(O)[C@H](C)[C@H]1OC(=O)/C=C/c1ccc(O)c(OC)c1)C2(C)C (single isomer, unassigned)	> 50	< 5.00	< 5.00	7.06	< 5.00	< 5.00	< 5.00	> 5	
CCCC(=O)O[C@]12C([C@@H]3C=C(CO)C[C@]4(O)C(=O)C(C)=C[C@H]4[C@@]3(O)[C@H](C)[C@H]1OC(=O)/C=C/c1ccccc1)C2(C)C (single isomer, unassigned)	> 5000	< 5.00	< 5.00	9.05	< 5.00	< 5.00	< 5.00	> 5	5.06

Source: ChEMBL document CHEMBL4808236, “New phorbol ester derivatives as potent anti-HIV agents” (Bioorg Med Chem Lett, 2021)
